In US20260041753A1, “RESPIRATORY SYNCYTIAL VIRUS SURFACE GL[…], CONJUGATES, AND USES THEREOF” (Dana-Farber Cancer Institute, Inc., priority 2023, published 2026):
Read-outs that look alike come from different tables or passages of the source. Where a SMILES comes first, the peptide text is derived from it. Bridges are numbered along the chain shown (N, C = ends). Primed or numbered codes have the meaning given here. Where no end group is shown, it is not given here. Side-chain parts run from the residue outwards. [ ]: non-standard residue; d: D form. The star is where a group is joined. ξ: configuration not given here. thiocholesterol = thiocholesterol moiety attached via the PEG4 linker to the lysine epsilon side chain, CC(C)CCC[C@@H](C)[C@H]1CC[C@H]2[C@@H]3CC=C4C[C@@H](S*)CC[C@]4(C)[C@H]3CC[C@]12C; Acetyl(2-S-cholesteryl) = CC(C)CCC[C@@H](C)[C@H]1CC[C@H]2[C@@H]3CC=C4C[C@@H](SCC(=O)*)CC[C@]4(C)[C@H]3CC[C@]12C; Acetyl(2-S-3ξ-cholesteryl) = CC(C)CCC[C@@H](C)[C@H]1CC[C@H]2[C@@H]3CC=C4CC(SCC(=O)*)CC[C@]4(C)[C@H]3CC[C@]12C; PEG20 = NCCOCCOCCOCCOCCOCCOCCOCCOCCOCCOCCOCCOCCOCCOCCOCCOCCOCCOCCOCCOCCC(=O)O; PEG16 = NCCOCCOCCOCCOCCOCCOCCOCCOCCOCCOCCOCCOCCOCCOCCOCCOCCC(=O)O; PEG4′ = 4x polyethylene glycol linker; R8 = C=CCCCCCC[C@@](C)(N)C(=O)O; PEG4 = NCCOCCOCCOCCOCCC(=O)O; S5 = C=CCCC[C@](C)(N)C(=O)O

Columns and labels:
[1] = tested on: live human Respiratory Syncytial Virus with Green Fluorescent Protein (RSV-GFP1); format: cell-based; details: for antiviral activity in the GFP-RSV live virus assay (staple and PEG scanning): dose of 2 μM, RSV-GFP in A549 cells after 48 hours (FIG. 15); for improvement in anti-viral activity compared to the singly stapled RSV HR2 peptide of SEQ ID NO: 4: versus single staple alone with an additional 6 HR2 amino acids at the C-terminus
Experimental: Antiviral Efficacy Assays: The efficiency of the peptide-cholesterol conjugates of the invention in preventing and treating infection of live human Respiratory Syncytial Virus with Green Fluorescent Protein (RSV-GFP1) are evaluated in monolayer cell cultures. A549 cells plated in 384-well format are treated for 30 min with a serial dilution of stapled peptides (e.g. 1-5 […] or a fixed dose, e.g. […]), performed in quadruplicate, followed by addition of GFP-RSV live virus assay (0.75-1.25 μL of virus per well) and incubation for 48-72 hours. Infected cells are then washed with PBS. Hoechst 33342 (cell permeable nuclear dye) and DRAQ7 (cell impermeable nuclear dye) are added and the plate imaged on a Molecular Devices ImageXpress Micro Confocal Laser at 4× magnification. GFP (+) cells are counted and total GFP(+) cells or percent GFP(+) cells are plotted using Prism software (Graphpad). Cytotoxicity is determined by the ratio of DRAQ7 (+) Hoechst 33342 (+) to DRAQ7 (−) Hoechst 33342 (+) cells.

[2] = pI of stapled lipopeptides; format: physicochemical
[3] = Solubility of stapled lipopeptides in buffer (FIG. 18); format: physicochemical; details: 15 mg/mL in 15% DMSO, PBS pH 7.4
Experimental: Buffer conditions are 15 mg/mL in 15% DMSO, PBS pH 7.4.

[4] = GFP-RSV live virus, A549 cells, read-out at 48 hours (FIGS. 13, 16, 17), read-out: IC50, antiviral activity in live RSV virus assay

| Molecule | antiviral activity in the GFP-RSV live virus assay (staple and PEG scanning) [1] | IC50 [1, 4] | improvement in anti-viral activity compared to the singly stapled RSV HR2 peptide of SEQ ID NO: 4 [1] | also measured |
| --- | --- | --- | --- | --- |
| FDASISQVN8KINQSLXFIRKSDELLHNV* (FDASISQVNXKINQSLXFIRKSDELLHNVK; not fully specified; Lys(epsilon-(PEG)4-thiocholesterol); non-natural residues 8, X; SITE 10 (R)-alpha-(7'-octenyl)alanine; SITE 17 (S)-alpha-(4'-pentenyl)alanine; SITE 30 Residue side chain modified at the epsilon carbon with 4x polyethylene glycol attached to thiocholesterol) [SEQ ID NO: 14] | potent activity | – | – | – |
| CC[C@H](C)[C@H](NC(=O)[C@H](Cc1ccccc1)NC(=O)[C@H](C)NC(=O)[C@H](CC(C)C)NC(=O)[C@H](CO)NC(=O)[C@H](CCC(N)=O)NC(=O)[C@H](CC(N)=O)NC(=O)[C@@H](NC(=O)[C@H](CCCCN)NC(=O)[C@]1(C)CCCC=CCCCCCC[C@@](C)(NC(=O)[C@H](CC(=O)O)NC(=O)[C@H](Cc2ccccc2)NC(C)=O)C(=O)N[C@@H](CO)C(=O)N[C@@H]([C@@H](C)CC)C(=O)N[C@@H](CO)C(=O)N[C@@H](CCC(N)=O)C(=O)N[C@@H](C(C)C)C(=O)N[C@@H](CC(N)=O)C(=O)N1)[C@@H](C)CC)C(=O)N[C@@H](CCCNC(=N)N)C(=O)N[C@@H](CCCCN)C(=O)N[C@@H](CO)C(=O)N[C@@H](CC(=O)O)C(=O)N[C@@H](CCC(=O)O)C(=O)N[C@@H](CC(C)C)C(=O)N[C@@H](CC(C)C)C(=O)N[C@@H](Cc1c[nH]cn1)C(=O)N[C@@H](CC(N)=O)C(=O)N[C@H](C(=O)N[C@@H](CCCCNC(=O)CCOCCOCCOCCOCCNC(=O)CS[C@H]1CC[C@@]2(C)C(=CC[C@H]3[C@@H]4CC[C@H]([C@H](C)CCCC(C)C)[C@@]4(C)CC[C@@H]32)C1)C(N)=O)C(C)C [SEQ ID NO: 5, FD8SISQVNXKINQSLAFIRKSDELLHNV*] (Ac-FD[R8]SISQVN[S5]KINQSLAFIRKSDELLHNVK([PEG4-Acetyl(2-S-cholesteryl)])-NH2; staple 3-10) | potent activity | 130 nM | an order of magnitude | IC50 ([1]; live RSV virus (FIG. 13), read-out: IC50, infectivity assay using live RSV virus): 130 nM |
| PEG20-thiochol SEQ IQ NO: 5: SEQ ID NO:51 with PEG(n)-thiocholesterol linked via a C-terminal lysine, n is 20 (FDXSISQVNXKINQSLAFIRKSDELLHNVK; not fully specified; C-terminal Lys-PEG20-thiocholesterol; SITE 3 (R)-alpha-(7'-octenyl)alanine; SITE 10 (S)-alpha-(4'-pentenyl)alanine; SITE 30 Residue attached to 20x polyethylene glycol thiocholesterol) | – | 60 nM | greater than two orders of magnitude | – |
| PEG16-thiochol SEQ IQ NO: 5: SEQ ID NO:51 with PEG(n)-thiocholesterol linked via a C-terminal lysine, n is 16 (FDXSISQVNXKINQSLAFIRKSDELLHNVK; not fully specified; C-terminal Lys-PEG16-thiocholesterol; SITE 3 (R)-alpha-(7'-octenyl)alanine; SITE 10 (S)-alpha-(4'-pentenyl)alanine; SITE 30 Residue attached to 16x polyethylene glycol thiocholesterol) | – | 49 nM | greater than two orders of magnitude | – |
| CC[C@H](C)[C@H](NC(=O)[C@H](CO)NC(=O)[C@H](C)NC(=O)[C@H](CC(=O)O)NC(=O)[C@H](Cc1ccccc1)NC(C)=O)C(=O)N[C@@H](CO)C(=O)N[C@@H](CCC(N)=O)C(=O)N[C@H](C(=O)N[C@@H](CC(N)=O)C(=O)N[C@@H](CCC(=O)O)C(=O)N[C@@H](CCCCN)C(=O)N[C@H](C(=O)N[C@@H](CC(N)=O)C(=O)N[C@@H](CCC(N)=O)C(=O)N[C@@H](CO)C(=O)N[C@@H](CC(C)C)C(=O)N[C@]1(C)CCCCCCC=CCCC[C@@](C)(C(=O)N[C@@H](CC(C)C)C(=O)N[C@@H](CC(C)C)C(=O)N[C@@H](Cc2c[nH]cn2)C(=O)N[C@@H](CC(N)=O)C(=O)N[C@H](C(=O)N[C@@H](CCCCNC(=O)CCOCCOCCOCCOCCOCCOCCOCCOCCOCCOCCOCCOCCOCCOCCOCCOCCNC(=O)CS[C@H]2CC[C@@]3(C)C(=CC[C@H]4[C@@H]5CC[C@H]([C@H](C)CCCC(C)C)[C@@]5(C)CC[C@@H]43)C2)C(N)=O)C(C)C)NC(=O)[C@H](CC(=O)O)NC(=O)[C@H](CO)NC(=O)[C@H](CCCCN)NC(=O)[C@H](CCCNC(=N)N)NC(=O)[C@H]([C@@H](C)CC)NC(=O)[C@H](Cc2ccccc2)NC1=O)[C@@H](C)CC)C(C)C [PEG16-thiochol SEQ ID NO: 21] (Ac-FDASISQVNEKINQSL[R8]FIRKSD[S5]LLHNVK([PEG16-Acetyl(2-S-cholesteryl)])-NH2; staple 17-24) | – | 18 nM | – | – |
| SDEFDASISQVNEKINQSL8FIRKSDXLLHNV* (SDEFDASISQVNEKINQSL[R8]FIRKSD[S5]LLHNV; staple 20-27; also: C-terminal linker-lipid (*), exact composition not fixed) [SEQ ID NO: 281] | – | – | – | pI [2]: 4.7; solubility [3]: fully soluble; solubility ([3]; listed as SEQ ID NO:21 with three native N-terminal residues “SDE”): complete solubility |
| CC[C@H](C)[C@H](NC(=O)[C@H](CO)NC(=O)[C@H](C)NC(=O)[C@H](CC(=O)O)NC(=O)[C@H](Cc1ccccc1)NC(C)=O)C(=O)N[C@@H](CO)C(=O)N[C@@H](CCC(N)=O)C(=O)N[C@H](C(=O)N[C@@H](CC(N)=O)C(=O)N[C@@H](CCC(=O)O)C(=O)N[C@@H](CCCCN)C(=O)N[C@H](C(=O)N[C@@H](CC(N)=O)C(=O)N[C@@H](CCC(N)=O)C(=O)N[C@@H](CO)C(=O)N[C@@H](CC(C)C)C(=O)N[C@]1(C)CCCCCCC=CCCC[C@@](C)(C(=O)N[C@@H](CC(C)C)C(=O)N[C@@H](CC(C)C)C(=O)N[C@@H](Cc2c[nH]cn2)C(=O)N[C@@H](CC(N)=O)C(=O)N[C@H](C(=O)N[C@@H](CCCCNC(=O)CCOCCOCCOCCOCCNC(=O)CSC2CC[C@@]3(C)C(=CC[C@H]4[C@@H]5CC[C@H]([C@H](C)CCCC(C)C)[C@@]5(C)CC[C@@H]43)C2)C(N)=O)C(C)C)NC(=O)[C@H](CC(=O)O)NC(=O)[C@H](CO)NC(=O)[C@H](CCCCN)NC(=O)[C@H](CCCNC(=N)N)NC(=O)[C@H]([C@@H](C)CC)NC(=O)[C@H](Cc2ccccc2)NC1=O)[C@@H](C)CC)C(C)C (stereo partly drawn) [SEQ ID NO: 21, FDASISQVNEKINQSL8FIRKSDXLLHNV*] (Ac-FDASISQVNEKINQSL[R8]FIRKSD[S5]LLHNVK([PEG4-Acetyl(2-S-3ξ-cholesteryl)])-NH2; staple 17-24) | – | – | – | solubility [3]: visible pellet; solubility ([3]; listed as SEQ ID NO:21): Poor solubility |
| FDASISQVNEKINQSLAFI8KSDELLXNV* (FDASISQVNEKINQSLAFI[R8]KSDELL[S5]NVK([PEG4′-thiocholesterol]); staple 20-27 (inferred)) [SEQ ID NO: 24, * =Lys(epsilon-(PEG)4-thiocholesterol)] | potent activity | – | – | – |
| 8DASISQXNEKINQSLAFIRKSDELLHNV* ([R8]DASISQ[S5]NEKINQSLAFIRKSDELLHNVK([PEG4′-thiocholesterol]); staple 1-8) [SEQ ID NO: 6, * =Lys(epsilon-(PEG)4-thiocholesterol)] | potent activity | – | – | – |
| CC[C@H](C)[C@H](NC(=O)[C@H](CO)NC(=O)[C@H](C)NC(=O)[C@H](CC(=O)O)NC(=O)[C@H](Cc1ccccc1)NC(C)=O)C(=O)N[C@@H](CO)C(=O)N[C@@H](CCC(N)=O)C(=O)N[C@H](C(=O)N[C@@H](CC(N)=O)C(=O)N[C@@H](CCC(=O)O)C(=O)N[C@@H](CCCCN)C(=O)N[C@H](C(=O)N[C@@H](CC(N)=O)C(=O)N[C@@H](CCC(N)=O)C(=O)N[C@@H](CO)C(=O)N[C@@H](CC(C)C)C(=O)N[C@]1(C)CCCCCCC=CCCC[C@@](C)(C(=O)N[C@@H](CC(C)C)C(=O)N[C@@H](CC(C)C)C(=O)N[C@@H](Cc2c[nH]cn2)C(=O)N[C@@H](CC(N)=O)C(=O)N[C@H](C(=O)N[C@@H](CCCCNC(=O)CCOCCOCCOCCOCCOCCOCCOCCOCCOCCOCCOCCOCCOCCOCCOCCOCCOCCOCCOCCOCCNC(=O)CS[C@H]2CC[C@@]3(C)C(=CC[C@H]4[C@@H]5CC[C@H]([C@H](C)CCCC(C)C)[C@@]5(C)CC[C@@H]43)C2)C(N)=O)C(C)C)NC(=O)[C@H](CC(=O)O)NC(=O)[C@H](CO)NC(=O)[C@H](CCCCN)NC(=O)[C@H](CCCNC(=N)N)NC(=O)[C@H]([C@@H](C)CC)NC(=O)[C@H](Cc2ccccc2)NC1=O)[C@@H](C)CC)C(C)C [PEG20-thichol SEQ ID NO: 21] (Ac-FDASISQVNEKINQSL[R8]FIRKSD[S5]LLHNVK([PEG20-Acetyl(2-S-cholesteryl)])-NH2; staple 17-24) | – | 8.2 nM | – | – |
